These results are taken from US12070457B2, “Substituted pyridines, pyridazines, pyrimidines, and 1,2,3-triazines as bruton's tyrosine kinase inhibitors” (HUTCHISON MEDIPHARMA LIMITED, priority 2020, dated 2024).

For one test, the target named is BTK recombinant protein (Homo sapiens (Human), UniProt Q06187). The test is described as follows: Determination of biochemical BTK (Z'-LYTE kinase assay). The source says: Example 2 Determination of Biochemical BTK
(§1) 1. Reagents and Materials
• BTK recombinant protein: Invitrogen, Cat #PV3363; • Z′-LYTE® kinase test kit-tyrosine 1 peptide: Invitrogen, Cat #PV3190; • 384-well low-flange black flat-bottomed polystyrene NBS microplate, no lid, no sterilization: Corning, Cat #3575; • 96-well polystyrene conical-bottomed MicroWell™ plate, sealed with a lid: Thermo Scientific™ Nunc™, Cat #277143; • Envision multi-mode plate reader: PerkinElmer; • Mixmate® shaker: Eppendorf; • TS-2102 shaking incubator: TENSUC; 2. Methods
Z′-LYTE® biochemical assay employs a fluorescence resonance energy transfer (FRET)-based, coupled-enzyme format and is based on the differential sensitivity of phosphorylated and non-phosphorylated peptides to proteolytic cleavage. Both ends of the short peptide substrate are labeled with two fluorescent groups to form a FRET paired combination. In the primary reaction (the Kinase Reaction), the kinase transfers the γ-phosphate of ATP to a single […] residue on the short peptide substrate. In the secondary reaction (the development reaction), the non-phosphorylated short peptides were recognized and cleaved by a site-specific protease (the development reagent). Phosphorylated short peptides can resist such cleavage. Cleavage of short peptides can disrupt the donor (such as coumarin) and receptor fluorophores (fluorescein) on the short peptides, while the phosphorylated short peptides can maintain FRET. The calculation method of the ratio is as follows, and the ratio of the respective emission signals generated by the donor fluorophores emitted (after excitation at 400 nm) to the receptors is calculated. Emission signal ratio=emitted light by coumarin (445 nm)/emitted light by fluorescein (520 nm). If the FRET short peptide is phosphorylated (such as no kinase inhibitor), the emitted light ratio will remain in a lower level. If the FRET short peptide is non-phosphorylated (such as kinase inhibitor), the emitted light ratio will be in a higher level. In this way, the inhibitory effects of different compound inhibitors on BTK kinase activity would be distinguished.
The experiment were carried out according to the instructions of the Z′-LYTE® kinase test kit-tyrosine 1 peptide. Reagent preparation: 1.33× kinase buffer: 5× kinase buffer was diluted with water to 1.33× kinase buffer; an enzyme solution: the kinase was dissolved in 1.33× kinase buffer with the final working concentration being 3.32 nM; a short peptide solution: a short peptide stock solution (1 mM dissolved in DMSO) was dissolved in 1.33× kinase buffer with the final working concentration being 2 μM; Z′-LYTE Tyr01 phosphorylated short peptide solution, 0.6 μl of stock solution (1 mM dissolved in DMSO) was dissolved in 149.4 μl of 1.33× kinase buffer; an ATP solution: an ATP stock solution (10 mM aqueous solution) was dissolved in 1.33× kinase buffer with the final working concentration being 32 μM; a color-developing solution: color-developing solution B was dissolved in color-developing buffer with the final working concentration being 1× color-developing solution; 4× compound preparation: the compound was diluted in 3-fold gradient concentration to finally obtain 4% DMSO aqueous solution containing different concentrations of the compound, with the final working concentration being 3000, 1000, 333.33, 111.11, 37.04, 12.35, 4.12, 1.37 nM, 8 concentration points in total.
Specific steps of the experiment: In the experiment, there were three control groups, each with 8 replicate wells, which were C1 100% inhibition group (no ATP), C2 0% inhibition group (with ATP), and C3 100% phosphorylation group, respectively. 2.5 μl of serially diluted compound was added to each well of a 384-well plate, with double replicate wells, and 4% DMSO solution was added to wells C1, C2, and C3. […]

Test [1] deals with phosphorylated BTK in Ramos cells (Homo sapiens (Human), UniProt Q06187). As to the kind of experiment: Determination of phosphorylated BTK in Ramos cells (BTK phospho-Y223 HTRF). In kind it is cell-based. On the procedure: Determination of Phosphorylated BTK in Ramos Cells
Chain of phosphorylated BTK in Ramos cells (Q06187 whole entry): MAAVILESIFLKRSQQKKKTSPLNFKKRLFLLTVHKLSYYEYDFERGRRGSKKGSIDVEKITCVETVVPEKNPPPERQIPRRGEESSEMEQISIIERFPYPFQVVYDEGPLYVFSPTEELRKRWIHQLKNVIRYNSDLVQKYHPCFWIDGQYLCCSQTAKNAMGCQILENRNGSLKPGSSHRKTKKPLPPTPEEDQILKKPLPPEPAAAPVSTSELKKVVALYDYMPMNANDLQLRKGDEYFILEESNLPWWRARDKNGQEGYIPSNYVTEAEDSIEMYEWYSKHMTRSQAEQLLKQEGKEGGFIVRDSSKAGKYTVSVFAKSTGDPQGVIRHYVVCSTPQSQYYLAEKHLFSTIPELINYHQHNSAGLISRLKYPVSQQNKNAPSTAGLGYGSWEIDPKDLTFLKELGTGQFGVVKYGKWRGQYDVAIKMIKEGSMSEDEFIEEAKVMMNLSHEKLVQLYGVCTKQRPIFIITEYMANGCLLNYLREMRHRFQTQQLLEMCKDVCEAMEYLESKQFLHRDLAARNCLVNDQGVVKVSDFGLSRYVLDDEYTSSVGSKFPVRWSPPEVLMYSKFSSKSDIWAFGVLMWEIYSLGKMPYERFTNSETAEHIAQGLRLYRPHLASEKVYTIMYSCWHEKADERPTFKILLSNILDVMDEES
as §1
• Ramos cells: Ramos cells were purchased from American Standard Biological Collection Center ATCC Cell Bank, PRMI 1640 medium containing L-glutamine, 1.5 g/L of sodium bicarbonate, 2.383 g/L of HEPES solution, 0.11 g/L of sodium pyruvate and 4.5 g/L of glucose was used, added 10% fetal bovine serum FBS, and placed in a 5% C02, 37° C. cell incubator for normal culture; • PRMI 1640 medium: GIBCO, Cat #A10491-01; • Fetal bovine serum (FBS): GIBCO, Cat #100100-147; • Hank's balanced salt solution (HBSS): GIBCO, Cat #14025-092; • Immunoglobulin M (IgM): Jackson Immuno, Cat #109-006-129; • 3% hydrogen peroxide (3% H2O2): Sigma, Cat #88597-100 ML-F; • Phosphorylated BTK HTRF detection kit (BTK phospho-Y223 HTRF kit): Cisbio, Cat #63ADK017PEH; • Microwell plate reader: Envision, Perkin Elmer; • 384-well plate CulturPlate™384: Perkin Elmer, Cat #6007680 • 96-well plate: Corning, Cat #3799. 2. Methods
Ramos cells were starved in PRMI 1640 medium with 1% FBS for 2 hours. The starved Ramos cells were diluted with Hank's balanced salt solution to 5.0×10^6 cells/ml, seeded in a 96-well plate with 20 μL/well (1.0×10^5 cells/well), and cultured in a 5% CO2, 37° C. cell incubator. […]
The 384 well plate incubated overnight in the constant temperature incubator was taken out to detect the luminescence signal using the Envision microwell plate reader at the […]. The reading value at 665 nm/615 nm of each well multiplied by 104 was used as the signal value of each well.
The average signal value of the wells supplemented with the mixed solution of human immunoglobulin M (final concentration was 10 μg/mL) and hydrogen peroxide (final concentration was 3.3 mM) without the test compound was regarded as the high value, and the average signal value of the wells without immunoglobulin M stimulation and without the test compound was regarded as the low value. According to the signal value in each well, the inhibition ratio (%) of each concentration of compounds was calculated, and the 205 model in XL-Fit 5.3 software (ID Business Solutions Limited) was used to obtain an IC50 value. […]
For orientation: Time-resolved FRET reads energy transfer from a long-lived donor to a nearby acceptor.

Test [2] has as its system B cell activation in mice whole blood (BTK target). The test is described as follows: In vivo inhibitory effect on BTK target (anti-IgD antibody-induced B cell activation in mice whole blood). Further details: species or system mouse. Here is the method: Objects: B cells in mice whole blood were induced and activated by the anti-IgD antibody, and the inhibitory effect of the compound of the present invention on B cell activation in vivo was studied, so as to determine the inhibitory effect of the compound of the present invention on the BTK target in vivo.
Methods: C57BL/6 mice (female, 18-20 g, purchased from Shanghai Lingchang Biotechnology Co., Ltd.) were grouped according to Table 2.
The animals of each group were administered, then were placed in CO2 for anesthesia at designated time points, blood samples were taken from rats via retro-orbital bleeding, and heparin was used for anticoagulation; 90 μL of whole blood was taken from mice of each group, and added to a 96 well culture plate, and anti-mouse IgD antibody (BIO-RAD, Cat #MCA4693) was added to each well to a final concentration of 0.01 μg/μL (respectively for the each drug-treated group and anti-IgD antibody-inducted vehicle group); in addition, 90 μL of whole blood of mice in the vehicle group was taken and added to the 96-well culture plate, and PBS (phosphate buffer, GIBCO, Cat #C20012500BT) was added to each well to a final concentration of 0.01 μg/μL (namely, the vehicle control group); Each group was mixed well and incubated in a 37° C./5% CO2 incubator for 4 hours. In addition, the blood of mice in the drug-treated group was centrifuged to separate plasma for blood concentration analysis.
B cell activation ratio=percentage of CD69^+CD19^+ double positive B cells/percentage of CD19^+ single positive B cells
All data are represented by mean±standard error. For the comparison between each drug-treated group and the anti-IgD antibody-induced vehicle group, p value was calculated by Graphpad Prism using one-way ANOVA analysis of variance and Dunnett's test, and for the comparison between each drug-treated group, p value was calculated by using unpaired t test.

Chain of BTK recombinant protein (Q06187 whole entry): as above

Broadly, the IC50 is the concentration that gives 50% inhibition. On to `Cn1cc(-c2ccnc(-n3ccn4c5c(cc4c3=O)CC(C)(C)C5)c2CO)cc(Nc2ccc(N3CCN4CCOCC4C3)cn2)c1=O` (racemic) [Compound 232], for which the IC50 on BTK recombinant protein worked out at 12 nM; in test [1] it was 8 nM.
For `COCCN1CCn2nc(Nc3cc(-c4ccnc(-n5ccn6c7c(cc6c5=O)CCC7)c4CO)cn(C)c3=O)cc2C1C` (racemic) [Compound 145] the same measures were 33 nM and 16 nM.
As for `Cn1cc(-c2ccnc(-n3ccn4c5c(c(F)c4c3=O)CCCC5)c2CO)cc(Nc2cc3n(n2)CCOC3)c1=O` [compound 176], in test [2] (5 mg/kg oral single, 16 h), the “B cell activation ratio (the proportion of activated B cells to total B cells)” value was found to be 13.9 and the “Inhibition ratio (%)” value was determined as 48%. Moreover, the “inhibition ratio on B cell activation” value in test [2] (5 mg/kg, after 16 hours of administration, anti-IgD antibody-induced, mice whole blood) is on record as 48%.
